Data: article PMC9220351, “Evaluation of a Conformationally Constrained Indole Carboxamide as a Potential Efflux Pump Inhibitor in Pseudomonas aeruginosa” (Antibiotics, 2022)
≈ marks a conversion by molar mass, not a printed value. Like-named read-outs stand apart in the source and are kept apart here.

Tests used:
[1] = test system: P. aeruginosa mutants EPIR1S, EPIR9S, EPIR20L, EPIR43; assay: MIC of antimicrobials in TXA09155-resistant mutants; assay type: cell-based, Pseudomonas aeruginosa
Procedure: All resistant colonies were verified by determining the MIC to TXA09155. […] This two-component system regulates the expression of more than 100 genes in P. aeruginosa, including genes that code for efflux components (mexX), and plays a role in the resistance to cationic antimicrobial peptides and aminoglycoside antibiotics.
(§1) MIC assays were performed as described previously.

P. aeruginosa ATCC 27853 = assay: MIC / antibiotic potentiation assay, wild-type strain; conditions: for Antibiotic MIC in Presence of TXA09155 at a Concentration of 3.13: TXA09155 3.13 μg/mL; for Antibiotic MIC in Presence of TXA09155 at a Concentration of 25: TXA09155 25 μg/mL; for Emax: ratio between MIC without EPI and MIC in the presence of a maximal potentiating concentration of EPI (TXA09155); for antibiotic potentiated by TXA09155 up to x-fold: TXA09155 25 to 3.13 µg/mL
P. aeruginosa K767 (WT) = assay: MIC assay, strain K767; assay type: cell-based, Pseudomonas aeruginosa; conditions: antibiotic alone; for MIC: Pseudomonas aeruginosa, read-out: MICs K767 (WT)
Excerpt: (§2) P. aeruginosa ATCC 27853 was obtained from the American Type Culture Collection (ATCC; Manassas, VA, USA). P. aeruginosa multidrug-resistant isolates were obtained from the CDC and FDA Antibiotic Resistance Isolate Bank (Atlanta, GA, USA). P. aeruginosa DA7232 (gyrA-T83I, parC-S80L) was a kind gift from Prof. Dan I. Andersson, Uppsala University, Uppsala, Sweden, and has been characterized elsewhere. P. aeruginosa strains K767 (WT), K1455 (mexAB-oprM overexpressed), K2415 (mexXY-oprM overexpressed), and K3698 (oprM∆) were obtained from Prof. Keith Poole, Queen’s University, Kingston, Ontario, Canada and have been characterized elsewhere. Bacterial cells were grown in cation-adjusted Mueller Hinton (CAMH) media, brain heart infusion broth (BHI), or tryptic soy agar (TSA) plates were all obtained from Becton, Dickinson, and Company (BD; Franklin Lakes, NJ, USA). Aztreonam, ceftazidime, moxifloxacin, levofloxacin, minocycline, tigecycline, chloramphenicol, nitrocefin, and imipenem were purchased from TOKU-E (Bellingham, WA, USA). Azithromycin was purchased from Tokyo Chemical Industry (Portland, OR, USA). Cotrimoxazole was purchased from Toronto Research Chemicals (Toronto, ON, Canada). Doxycycline and polymyxin B were purchased from Sigma-Aldrich (St. Louis, MO, USA). Ethidium bromide (EtBr) and glucose were purchased from VWR (Radnor, PA, USA). MC-04,124 and TXA01182 were synthesized at TAXIS Pharmaceuticals. Carbonyl cyanide 3-chlorophenylhydrazone (CCCP) was purchased from Enzo Life Sciences (Farmingdale, NY, USA). DiOC2 (3) and propidium iodide were obtained from Thermo Fisher Scientific (Waltham, MA, USA).
as §1

[2] = test system: P. aeruginosa K3698 (∆oprM); assay: MIC / potentiation assay, strain K3698; assay type: cell-based, Pseudomonas aeruginosa; conditions: for MIC: Pseudomonas aeruginosa, read-out: MICs K3698 (∆oprM)
Excerpt: as §2, with “Aztreonam, ceftazidime, moxifloxacin, levofloxacin, minocycline, tigecycline, chloramphenicol, nitrocefin, and imipenem were purchased from TOKU-E (Bellingham, WA, USA).” left out, “Cotrimoxazole was purchased from Toronto Research Chemicals (Toronto, ON, Canada). Doxycycline and polymyxin B were purchased from Sigma-Aldrich (St. Louis, MO, USA).” left out
as §1

[3] = test system: P. aeruginosa K1455 (mexAB-oprM overexpressed); assay: microbe, parasite or virus in culture; assay type: cell-based, Pseudomonas aeruginosa; conditions: for MIC: Pseudomonas aeruginosa, read-out: MICs K1455 (↑mexAB-oprM); for MIC Ratios K1455 (↑mexAB-oprM)/K3698 (∆oprM): effect of pump deletion
Excerpt: as §2, §1

[4] = test system: P. aeruginosa K2415 (mexXY-oprM overexpressed); assay: MIC / potentiation assay, strain K2415; assay type: cell-based, Pseudomonas aeruginosa; conditions: for MIC: Pseudomonas aeruginosa, read-out: MICs K2415 (↑mexXY-oprM)
Excerpt: as §2, §1

[5] = Pseudomonas aeruginosa, strain EPIR1S (phoQ-L175R)
[6] = Pseudomonas aeruginosa, strain EPIR20L (phoQ-H248D)
[7] = Pseudomonas aeruginosa, ATCC27853, read-out: Antibiotic MIC in Presence of TXA09155 at a Concentration of 0
[8] = Pseudomonas aeruginosa, ATCC27853, read-out: MICs, Lack of EPI
[9] = Pseudomonas aeruginosa, strain EPIR9S (phoQ-L175R)

Compound | MIC [1, 5] | MIC [1, 6] | MIC (P. aeruginosa ATCC 27853; [7]) | Antibiotic MIC in Presence of TXA09155 at a Concentration of 3.13 (P. aeruginosa ATCC 27853) | Antibiotic MIC in Presence of TXA09155 at a Concentration of 25 (P. aeruginosa ATCC 27853) | Emax (P. aeruginosa ATCC 27853) | MIC (P. aeruginosa K767 (WT)) | Antibiotic MIC in Presence of TXA09155 at a Concentration of 12.5 (P. aeruginosa ATCC 27853) | MIC [3] | MIC [4] | further results
NCC[C@H](O)C(=O)N[C@@H]1C[C@H](N)[C@@H](O[C@H]2O[C@H](CN)[C@@H](O)[C@H](O)[C@H]2O)[C@H](O)[C@H]1O[C@H]1O[C@H](CO)[C@@H](O)[C@H](N)[C@H]1O [AMK, amikacin] | 8 µg/mL | 8 µg/mL |  |  |  |  |  |  |  |  | 
CC[C@H]1OC(=O)[C@H](C)[C@@H](O[C@H]2C[C@@](C)(OC)[C@@H](O)[C@H](C)O2)[C@H](C)[C@@H](O[C@@H]2O[C@H](C)C[C@H](N(C)C)[C@H]2O)[C@](C)(O)C[C@@H](C)CN(C)[C@H](C)[C@@H](O)[C@]1(C)O [AZM, azithromycin] | 64 µg/mL | 64 µg/mL |  |  |  |  |  |  |  |  | MIC (P. aeruginosa ATCC 27853; ATCC 27853, parent strain): 64 µg/mL
C[C@H]1[C@H](NC(=O)/C(=N\OC(C)(C)C(=O)O)c2csc(N)n2)C(=O)N1S(=O)(=O)O [Aztreonam] |  |  | 8 µg/mL | 4 µg/mL | 0.25 µg/mL | 32 |  |  |  |  | 
CC(C)(O/N=C(\C(=O)N[C@@H]1C(=O)N2C(C(=O)[O-])=C(C[n+]3ccccc3)CS[C@H]12)c1csc(N)n1)C(=O)O [CAZ, ceftazidime] | 2 µg/mL | 2 µg/mL |  |  |  |  |  |  |  |  | MIC (P. aeruginosa ATCC 27853; ATCC 27853, parent strain): 2 µg/mL
CO/N=C(\C(=O)N[C@@H]1C(=O)N2C(C(=O)[O-])=C(C[n+]3cccc4c3CCC4)CS[C@H]12)c1csc(N)n1 [Cefpirome] |  |  | 8 µg/mL | 4 µg/mL | 0.5 µg/mL | 16 | 2 µg/mL (≈ 3.89 µM) | 0.5 µg/mL | 8 µg/mL (≈ 15.5 µM) | 8 µg/mL | antibiotic potentiated by TXA09155 up to x-fold (P. aeruginosa ATCC 27853): up to 16 fold; FICindex (P. aeruginosa ATCC 27853; sum of the FICindex of antibiotic and TXA09155, <0.5 synergistic): 0.25; MIC [2]: 0.5 µg/mL; MIC Ratios K3698 (∆oprM) ± TXA09155 [2]: 2; MIC Ratios K1455 (↑mexAB-oprM) ± TXA09155 [3]: 8; MIC Ratios K1455 (↑mexAB-oprM)/K3698 (∆oprM) ([3]; antibiotic alone): 4; MIC Ratios K2415 (↑mexXY-oprM) ± TXA09155 [4]: 8
O=C(N[C@H](CO)[C@H](O)c1ccc([N+](=O)[O-])cc1)C(Cl)Cl [Chloramphenicol] |  |  | > 256 µg/mL | >256 µg/mL | 2 µg/mL | >128 | 128 µg/mL (≈ 396 µM) | 4 µg/mL | > 256 µg/mL | 128 µg/mL | MIC (P. aeruginosa ATCC 27853; [8]): > 256 µg/mL; MIC [2]: 8 µg/mL
C[C@H]1c2cccc(O)c2C(=O)C2=C(O)[C@]3(O)C(=O)C(C(N)=O)=C(O)[C@@H](N(C)C)[C@@H]3[C@@H](O)[C@@H]21 [Doxycycline] | 16 µg/mL | 16 µg/mL | 32 µg/mL | 16 µg/mL |  |  | 32 µg/mL (≈ 72 µM) |  | ≥ 256 µg/mL | 32 µg/mL | MIC (P. aeruginosa ATCC 27853; [8]): 32 µg/mL; MIC [1, 9]: 16 µg/mL
C[C@@H](O)[C@H]1C(=O)N2C(C(=O)O)=C(SCCN=CN)C[C@H]12 [Imipenem] |  |  | 2 µg/mL | 2 µg/mL | 2 µg/mL | 1 | 2 µg/mL (≈ 6.68 µM) | 2 µg/mL | 1 µg/mL (≈ 3.34 µM) | 1 µg/mL | antibiotic potentiated by TXA09155 up to x-fold (P. aeruginosa ATCC 27853): not potentiated; MIC [2]: 2 µg/mL; MIC Ratios K3698 (∆oprM) ± TXA09155 [2]: 1; MIC Ratios K1455 (↑mexAB-oprM) ± TXA09155 [3]: 1; MIC Ratios K1455 (↑mexAB-oprM)/K3698 (∆oprM) ([3]; antibiotic alone): 1; MIC Ratios K2415 (↑mexXY-oprM) ± TXA09155 [4]: 1
C[C@@H](O)[C@H]1C(=O)N2C(C(=O)O)=C(S[C@@H]3CN[C@H](C(=O)N(C)C)C3)[C@H](C)[C@H]12 [MEM, meropenem] | 2 µg/mL | 2 µg/mL |  |  |  |  |  |  |  |  | MIC [1, 9]: 1 µg/mL
CN(C)c1ccc(O)c2c1C[C@H]1C[C@H]3[C@H](N(C)C)C(O)=C(C(N)=O)C(=O)[C@@]3(O)C(O)=C1C2=O [Minocycline] |  |  | 32 µg/mL | 16 µg/mL | 0.125 µg/mL | 256 | 64 µg/mL (≈ 140 µM) | 0.25 µg/mL | > 256 µg/mL | 32 µg/mL | MIC (P. aeruginosa ATCC 27853; [8]): 32 µg/mL; MIC [2]: 1 µg/mL
COc1c(N2C[C@@H]3CCCN[C@@H]3C2)c(F)cc2c(=O)c(C(=O)O)cn(C3CC3)c12 [Moxifloxacin] |  |  | 2 µg/mL | 2 µg/mL | 0.016 µg/mL |  |  | 0.031 µg/mL |  |  | MIC (P. aeruginosa ATCC 27853; [8]): 2 µg/mL
CN(C)c1cc(NC(=O)CNC(C)(C)C)c(O)c2c1C[C@H]1C[C@H]3[C@H](N(C)C)C(O)=C(C(N)=O)C(=O)[C@@]3(O)C(O)=C1C2=O [TGC, tigecycline] | 8 µg/mL | 8 µg/mL |  |  |  |  |  |  |  |  | MIC (P. aeruginosa ATCC 27853; ATCC 27853, parent strain): 8 µg/mL
Cotrimoxazole |  |  |  | 256 µg/mL | 2 µg/mL | 128 |  | 4 µg/mL |  |  | MICs K767 (WT) (P. aeruginosa K767 (WT)): 64 µg/mL; Antibiotic MIC in Presence of TXA09155 at a Concentration of 0 (P. aeruginosa ATCC 27853; TXA09155 0 μg/mL): 256 µg/mL; MICs K3698 (∆oprM) ([2]; antibiotic alone): 4 µg/mL; MICs K1455 (↑mexAB-oprM) ([3]; antibiotic alone): > 256 µg/mL; MICs K2415 (↑mexXY-oprM) ([4]; antibiotic alone): 64 µg/mL
polymyxin B [PMB] |  |  |  |  |  |  |  |  |  |  | MIC (P. aeruginosa ATCC 27853; ATCC 27853, parent strain): 2 µg/mL; MIC ([1]; strain EPIR1S (phoQ-L175R)): 4 µg/mL; MIC ([1]; strain EPIR9S (phoQ-L175R)): 2 µg/mL; MIC ([1]; strain EPIR20L (phoQ-H248D)): 4 µg/mL; MIC ([1]; strain EPIR43 (ompH-Q127X)): 4 µg/mL
